These results are taken from the Biogen ADME set (Fang et al. 2023).

In brackets after ≈: the same amount, converted by molar mass.

For the data set the following is noted: for aqueous solubility: pH 6.8.

With `CCn1nc(CNC(=O)C2CCOCC2)c2ccccc21`, the MDR1-MDCK efflux ratio turned out to be 2.83; the intrinsic clearance, human liver microsomes is at most 4.74 mL/min/kg; the intrinsic clearance, rat liver microsomes amounted to 112 mL/min/kg.
In the case of `CCC(CC)NC(=O)c1ccc(C#N)c(C)n1`, the intrinsic clearance, human liver microsomes amounted to 6.17 mL/min/kg; the intrinsic clearance, rat liver microsomes turned out to be 50 mL/min/kg; the aqueous solubility was 52.9 µg/mL (≈ 229 µM).
`Cc1cc(C)c(-n2cccn2)c(-c2cn(C[C@@H]3CCCO3)nn2)c1`: the MDR1-MDCK efflux ratio worked out at 1.18; the intrinsic clearance, human liver microsomes was found to be 68 mL/min/kg; the intrinsic clearance, rat liver microsomes turned out to be 507 mL/min/kg; the aqueous solubility was 26.4 µg/mL (≈ 81.7 µM).
Taken in the same sequence, the figures for `C=CCN(Cc1cccnc1)c1nc(C)nc2sccc12` were 0.798, 188 mL/min/kg, 1480 mL/min/kg and 45.5 µg/mL (≈ 154 µM).
The corresponding values for `COc1cccc(-c2nc(-c3cccnc3)n[nH]2)c1` are 0.698, at most 4.74 mL/min/kg, 46.5 mL/min/kg and 22.7 µg/mL (≈ 89.8 µM).
`CN(Cc1c(F)cccc1Cl)C(=O)c1ccc(-n2ccnc2)nc1`: the MDR1-MDCK efflux ratio came out at 0.625; the intrinsic clearance, human liver microsomes turned out to be 26.3 mL/min/kg; the intrinsic clearance, rat liver microsomes is 1660 mL/min/kg; the aqueous solubility was found to be 54.1 µg/mL (≈ 157 µM).
On to `COC1(c2nc(Cc3ccccc3)no2)CCN(Cc2cnc(C)o2)CC1`, for which the MDR1-MDCK efflux ratio stood at 1.12; the intrinsic clearance, human liver microsomes was found to be 18 mL/min/kg; the intrinsic clearance, rat liver microsomes worked out at 285 mL/min/kg.
For the compound `CC(C)Cc1n[nH]c(-c2ccc(N3CCN(C)CC3)cc2)n1`, the MDR1-MDCK efflux ratio was 3.36; the intrinsic clearance, human liver microsomes is at most 4.74 mL/min/kg; the intrinsic clearance, rat liver microsomes came to 236 mL/min/kg.
Take `CCOC1CCN(C(=O)Cn2c(=O)[nH]c3ccccc32)CC1`: the MDR1-MDCK efflux ratio worked out at 16.9; the intrinsic clearance, human liver microsomes is at most 4.74 mL/min/kg; the intrinsic clearance, rat liver microsomes is 20.2 mL/min/kg; the aqueous solubility was 47.3 µg/mL (≈ 156 µM).
Taken in the same sequence, the figures for `CC(C)CC(=O)N1CCC(Cc2cccc(-c3cncnc3)c2)(C(=O)NC(C)C)CC1` were 71.8, 199 mL/min/kg, 694 mL/min/kg and 137 µg/mL (≈ 324 µM).
`O=C(Cn1nc(Cc2ccccc2)c2ccccc2c1=O)NCc1ncc[nH]1`: the MDR1-MDCK efflux ratio was determined as 92.6; the intrinsic clearance, human liver microsomes stood at 50.9 mL/min/kg; the intrinsic clearance, rat liver microsomes is 3330 mL/min/kg.
Turning to `CN(C)CCSc1nnnn1-c1ccc(Br)cc1`, the MDR1-MDCK efflux ratio stood at 0.435; the intrinsic clearance, human liver microsomes turned out to be 28.6 mL/min/kg; the intrinsic clearance, rat liver microsomes was found to be 1740 mL/min/kg.
Take `COc1cc(OC)cc(-c2c(C)ncnc2OC)c1`: the MDR1-MDCK efflux ratio came out at 0.749; the intrinsic clearance, human liver microsomes is at most 4.74 mL/min/kg; the intrinsic clearance, rat liver microsomes amounted to 107 mL/min/kg.
As to `CCCOc1ccn2c(C(C)=O)cc(-c3ccccc3S(C)(=O)=O)c2c1`, the MDR1-MDCK efflux ratio worked out at 1.33; the intrinsic clearance, human liver microsomes came to 56.1 mL/min/kg; the intrinsic clearance, rat liver microsomes was determined as 565 mL/min/kg.
As to `C=CCN(c1ccc(C(=O)OC)cc1)S(=O)(=O)c1ccccc1`, the aqueous solubility worked out at 2.24 µg/mL (≈ 6.76 µM).
`COCCN(C)c1ccc(CN2CCc3nn(C)c(=O)cc3C2)cn1`: the MDR1-MDCK efflux ratio turned out to be 3.02; the intrinsic clearance, human liver microsomes is at most 4.74 mL/min/kg; the intrinsic clearance, rat liver microsomes is 22 mL/min/kg.
Consider `Cc1cccc(CNc2cccc3c2CCN(S(C)(=O)=O)C3)c1`, for which the MDR1-MDCK efflux ratio is 0.65 and the aqueous solubility turned out to be 0.35 µg/mL (≈ 1.06 µM).
Compound `Cc1nn(-c2ccc(F)cc2)c2ncc(C(=O)Nc3nc(C4CC4)cs3)cc12` registered an intrinsic clearance, human liver microsomes of 5.68 mL/min/kg; an intrinsic clearance, rat liver microsomes of 32.4 mL/min/kg; an aqueous solubility of 5.35 µg/mL (≈ 13.6 µM).
